According to patent US6355785B1, “Guanosine-rich oligonucleotide integrase inhibitors” (Aronex Pharmaceuticals, Inc., priority 1993, dated 2002):
Values joined by “and” are separate entries in the source; they are usually repeats but may differ in a detail not shown here. Equal values may be shown once. Read-outs that look alike come from different tables or passages of the source.

Legend:
[1] = tested on: HIV-1 strains (SKI, RF, DV, IIIB, ADP/141); assay: microbe, parasite or virus in culture; assay type: cell-based; details: for IC90: read-out: IC90 (cpe assay)
[2] = set-up: species or system cynomolgus monkeys; details: cynomolgus monkey, in vivo
Method: Dosing. Twelve experimentally naive cynomolgus monkeys were assigned to four groups of three animals each. Prior to dosing, each animal was lightly sedated with a combination of ketamine (1 0 mg/kg) and diazepam (0.5 mg/kg), and a catheter was introduced into the femoral artery for recording central arterial pressure. Monkeys were given a single intravenous infusion of 5, 20, or 50 mg AR177/kg or saline over ten minutes through a cephalic vein catheter using a Harvard infusion pump. Arterial blood samples were drawn at −10, +10, +20, +40, +60 and +120 minutes relative to the initiation of infusion into EDTA-containing tubes for hematology, complement factors, coagulation assay, serum chemistry, and plasma AR177 determination. At 24 hours post-infusion, blood was drawn via the femoral vein into EDTA-containing tubes for these same parameters. The concentration of AR177 in dosing solutions was confirmed post experiment by absorbance at 280 nm on a spectrophotometer. For the determination of AR177 by HPLC, the plasma fraction was obtained by low speed centrifugation of blood, and stored at −20° C. until used. Electrocardiograms (ECGs), central pressure, and heart rate were recorded continuously for 120 minutes following the initiation of doing. Table E-1 summarizes the study design. The animals were observed twice daily pharmacotoxic signs and general health beginning two days before dosing and for seven days following dosing. The monkeys were not necropsied at the end of the study.
Hematology and coagulation parameters. The following are determined: red blood cell count and morphology, total and differential white blood cells, hemoglobin, hematocrit, prothrombin time, fibrinogen, mean cell hemoglobin, mean corpuscular volume, mean corpuscular hemoglobin concentration, platelet count, and activated partial thromboplastin time. Hematology parameters were determined at Sierra Nevada Laboratories (Reno, Nev.).

5′-gtggtgggtgggtgggt-3′ [T30177] (GTGGTGGGTGGGTGGGT; phosphorothioate termini, further chemistry not given here)
increase in IC50 when MOI of HIV-1RF changed from 0.01 to 1.28 ([1]; CEM-SS): 14 fold | IC50 ([1]; HIV-1 DV, SUP T1, read-out: IC50 virus production): 60 ± 4 nM | IC50 ([1]; HIV-1 IIIB, AA5, read-out: IC50 virus production): < 320 nM | IC50 ([1]; HIV-1 IIIB, CEM-SS or MT4, read-out: Antiviral Assay IC50 IIIB): 2830 nM | IC50 ([1]; HIV-1 IIIB, CEM-SS, read-out: IC50 virus production): 2800 nM and 2830 nM | IC50 ([1]; HIV-1 IIIB, MT2, read-out: IC50 virus production): 1940 ± 120 nM | IC50 ([1]; HIV-1 IIIB, MT4, read-out: IC50 virus production): 150 ± 20 nM | TI (therapeutic index) ([1]; HIV-1RF in MT2 cells): 226 | IC50 ([1]; HIV-1 RF, CEM-SS or MT4, read-out: Antiviral Assay IC50 RF): 75 nM | IC50 ([1]; HIV-1 RF, CEM-SS, MOI 0.01, read-out: IC50 virus production): 75 nM | IC50 ([1]; HIV-1 RF, MT4, read-out: IC50 virus production): 37 ± 30 nM | TI (therapeutic index) ([1]; HIV-1SKI in CEM-SS cells): 3680 | IC50 ([1]; HIV-1 SKI, CEM-SS or MT4, read-out: Antiviral Assay IC50 SKI): 25 nM | IC50 ([1]; HIV-1 SKI, CEM-SS, MOI 0.01, read-out: IC50 virus production): 25 ± 6 nM | IC50 ([1]; HIV-1 SKI, MT2, read-out: IC50 virus production): 60 ± 1 nM | IC50 ([1]; IIIB (MT4), MOI 0.01, read-out: IC50 (cpe assay)): 2700 nM | IC90 ([1]; IIIB (MT4), MOI 0.01): 9200 nM | IC50 ([1]; IIIB (MT4), MOI 0.02, read-out: IC50 (cpe assay)): 3100 nM | IC90 ([1]; IIIB (MT4), MOI 0.02): 6600 nM | IC50 ([1]; IIIB (MT4), MOI 0.3, read-out: IC50 (cpe assay)): 3380 nM | IC90 ([1]; IIIB (MT4), MOI 0.3): 7000 nM | IC50 ([1]; IIIB (MT4), MOI 1, read-out: IC50 (cpe assay)): 6800 nM | IC90 ([1]; IIIB (MT4), MOI 1): 26000 nM | IC50 ([1]; RF (CEM-SS), MOI 0.01, read-out: IC50 (cpe assay)): 200 nM | IC90 ([1]; RF (CEM-SS), MOI 0.01): 500 nM | IC50 ([1]; RF (CEM-SS), MOI 0.02, read-out: IC50 (cpe assay)): 410 nM | IC90 ([1]; RF (CEM-SS), MOI 0.02): 1500 nM | IC90 ([1]; RF (CEM-SS), MOI 0.04): 1560 nM | IC50 ([1]; RF (CEM-SS), MOI 0.08, read-out: IC50 (cpe assay)): 700 nM | IC90 ([1]; RF (CEM-SS), MOI 0.08): 1560 nM | IC50 ([1]; RF (CEM-SS), MOI 0.16, read-out: IC50 (cpe assay)): 870 nM | IC90 ([1]; RF (CEM-SS), MOI 0.16): 1600 nM | IC50 ([1]; RF (CEM-SS), MOI 0.32, read-out: IC50 (cpe assay)): 1250 nM | IC90 ([1]; RF (CEM-SS), MOI 0.32): 4700 nM | IC50 ([1]; RF (CEM-SS), MOI 0.64, read-out: IC50 (cpe assay)): 2640 nM | IC90 ([1]; RF (CEM-SS), MOI 0.64): 4750 nM | IC50 ([1]; RF (CEM-SS), MOI 1.28, read-out: IC50 (cpe assay)): 2810 nM | IC90 ([1]; RF (CEM-SS), MOI 1.28): 4770 nM | IC50 ([1]; anti-HIV-1 virus production, read-out: Cell Culture IC50): 75 nM | no effect plasma AR177 concentration versus aPTT [2]: 60-100 ug AR177/mL | plasma AR177 concentration at doubling of aPTT [2]: 100-250 ug AR177/mL | plasma AR177 concentration at tripling of aPTT [2]: 250-300 fig AR177/mL | % CD4 (HIV-1 infected PBMCs; IIIB, drug 0.1 μM, day 7): 1% | % CD8 (HIV-1 infected PBMCs; IIIB, drug 0.1 μM, day 7): 98% | CD4/CD8 Ratio (HIV-1 infected PBMCs; IIIB, drug 0.1 μM, day 7): 0.01 | % CD4 (HIV-1 infected PBMCs; IIIB, drug 1.0 μM): 18% | % CD8 (HIV-1 infected PBMCs; IIIB, drug 1.0 μM): 85% | CD4/CD8 Ratio (HIV-1 infected PBMCs; IIIB, drug 1.0 μM): 0.21 | % CD4 (HIV-1 infected PBMCs; IIIB, drug 5.0 μM): 27% | % CD8 (HIV-1 infected PBMCs; IIIB, drug 5.0 μM): 83% | CD4/CD8 Ratio (HIV-1 infected PBMCs; IIIB, drug 5.0 μM): 0.33 | % CD4 (HIV-1 infected PBMCs; IIIB, drug 10.0 μM): 27% | % CD8 (HIV-1 infected PBMCs; IIIB, drug 10.0 μM): 83% | CD4/CD8 Ratio (HIV-1 infected PBMCs; IIIB, drug 10.0 μM): 0.33 | % CD4 (HIV-1 infected PBMCs; MN, drug 0.1 μM): 5% | % CD8 (HIV-1 infected PBMCs; MN, drug 0.1 μM): 95% | CD4/CD8 Ratio (HIV-1 infected PBMCs; MN, drug 0.1 μM): 0.05 | % CD4 (HIV-1 infected PBMCs; MN, drug 1.0 μM): 18% | % CD8 (HIV-1 infected PBMCs; MN, drug 1.0 μM): 86% | CD4/CD8 Ratio (HIV-1 infected PBMCs; MN, drug 1.0 μM): 0.21 | % CD4 (HIV-1 infected PBMCs; MN, drug 5.0 μM): 25% | % CD8 (HIV-1 infected PBMCs; MN, drug 5.0 μM): 81% | CD4/CD8 Ratio (HIV-1 infected PBMCs; MN, drug 5.0 μM): 0.31 | % CD4 (HIV-1 infected PBMCs; MN, drug 10.0 μM): 26% | % CD8 (HIV-1 infected PBMCs; MN, drug 10.0 μM): 80% | CD4/CD8 Ratio (HIV-1 infected PBMCs; MN, drug 10.0 μM): 0.33 | % CD4 (HIV-1 infected PBMCs; N. Amer. #1, drug 0.1 μM): 21% | % CD8 (HIV-1 infected PBMCs; N. Amer. #1, drug 0.1 μM): 84% | CD4/CD8 Ratio (HIV-1 infected PBMCs; N. Amer. #1, drug 0.1 μM): 0.25 | % CD4 (HIV-1 infected PBMCs; N. Amer. #1, drug 1.0 μM): 26% | % CD8 (HIV-1 infected PBMCs; N. Amer. #1, drug 1.0 μM): 80% | CD4/CD8 Ratio (HIV-1 infected PBMCs; N. Amer. #1, drug 1.0 μM): 0.33 | % CD4 (HIV-1 infected PBMCs; N. Amer. #1, drug 5.0 μM): 27% | % CD8 (HIV-1 infected PBMCs; N. Amer. #1, drug 5.0 μM): 81% | CD4/CD8 Ratio (HIV-1 infected PBMCs; N. Amer. #1, drug 5.0 μM): 0.33 | % CD4 (HIV-1 infected PBMCs; N. Amer. #1, drug 10.0 μM): 29% | % CD8 (HIV-1 infected PBMCs; N. Amer. #1, drug 10.0 μM): 81% | CD4/CD8 Ratio (HIV-1 infected PBMCs; N. Amer. #1, drug 10.0 μM): 0.36 | % CD4 (HIV-1 infected PBMCs; N. Amer. #2, drug 0.1 μM): 4% | % CD8 (HIV-1 infected PBMCs; N. Amer. #2, drug 0.1 μM): 98% | CD4/CD8 Ratio (HIV-1 infected PBMCs; N. Amer. #2, drug 0.1 μM): 0.04 | % CD4 (HIV-1 infected PBMCs; N. Amer. #2, drug 1.0 μM): 5% | % CD8 (HIV-1 infected PBMCs; N. Amer. #2, drug 1.0 μM): 95% | CD4/CD8 Ratio (HIV-1 infected PBMCs; N. Amer. #2, drug 1.0 μM): 0.05 | % CD4 (HIV-1 infected PBMCs; N. Amer. #2, drug 5.0 μM): 28% | % CD8 (HIV-1 infected PBMCs; N. Amer. #2, drug 5.0 μM): 82% | CD4/CD8 Ratio (HIV-1 infected PBMCs; N. Amer. #2, drug 5.0 μM): 0.34 | % CD4 (HIV-1 infected PBMCs; N. Amer. #2, drug 10.0 μM): 27% | % CD8 (HIV-1 infected PBMCs; N. Amer. #2, drug 10.0 μM): 84% | CD4/CD8 Ratio (HIV-1 infected PBMCs; N. Amer. #2, drug 10.0 μM): 0.32 | % CD4 (HIV-1 infected PBMCs; RF, drug 0.1 μM): 10% | % CD8 (HIV-1 infected PBMCs; RF, drug 0.1 μM): 92% | CD4/CD8 Ratio (HIV-1 infected PBMCs; RF, drug 0.1 μM): 0.11 | % CD4 (HIV-1 infected PBMCs; RF, drug 1.0 μM): 26% | % CD8 (HIV-1 infected PBMCs; RF, drug 1.0 μM): 82% | CD4/CD8 Ratio (HIV-1 infected PBMCs; RF, drug 1.0 μM): 0.32 | % CD4 (HIV-1 infected PBMCs; RF, drug 5.0 μM): 31% | % CD8 (HIV-1 infected PBMCs; RF, drug 5.0 μM): 83% | CD4/CD8 Ratio (HIV-1 infected PBMCs; RF, drug 5.0 μM): 0.37 | % CD4 (HIV-1 infected PBMCs; RF, drug 10.0 μM): 29% | % CD8 (HIV-1 infected PBMCs; RF, drug 10.0 μM): 85% | CD4/CD8 Ratio (HIV-1 infected PBMCs; RF, drug 10.0 μM): 0.34 | % CD4 (HIV-1 infected PBMCs; SE Asia isolate, drug 0.1 μM): 2% | % CD8 (HIV-1 infected PBMCs; SE Asia isolate, drug 0.1 μM): 99% | CD4/CD8 Ratio (HIV-1 infected PBMCs; SE Asia isolate, drug 0.1 μM): 0.02 | % CD4 (HIV-1 infected PBMCs; SE Asia isolate, drug 1.0 μM): 12% | % CD8 (HIV-1 infected PBMCs; SE Asia isolate, drug 1.0 μM): 90% | CD4/CD8 Ratio (HIV-1 infected PBMCs; SE Asia isolate, drug 1.0 μM): 0.13 | % CD4 (HIV-1 infected PBMCs; SE Asia isolate, drug 5.0 μM): 29% | % CD8 (HIV-1 infected PBMCs; SE Asia isolate, drug 5.0 μM): 82% | CD4/CD8 Ratio (HIV-1 infected PBMCs; SE Asia isolate, drug 5.0 μM): 0.35 | % CD4 (HIV-1 infected PBMCs; SE Asia isolate, drug 10.0 μM): 29% | % CD8 (HIV-1 infected PBMCs; SE Asia isolate, drug 10.0 μM): 82% | CD4/CD8 Ratio (HIV-1 infected PBMCs; SE Asia isolate, drug 10.0 μM): 0.35
